The source of these data is patent US20060263809A1, “Method for sensitive measure of low level apoptosis in cells” (The Rgents of The University of California, priority 2005, published 2006).

SMILES strings stand for the structures. Entries after “also recorded” stand apart in the source; their conditions may differ. *1 amine or outer side, *2 acyl side, *3 side chain or, on linkers, in order; H or OH if unused. Where a SMILES comes first, the peptide text is derived from it. Bridges are numbered along the chain shown (N, C = ends). Roman numbers before positions name the chains, in order. [ ]: non-standard residue; d: D form. The star is where a group is joined. Actinocin(9to1) = Cc1c2oc3c(C)ccc(C(=O)[*:1])c3nc-2c(C(=O)[*:2])c(N)c1=O; NMeV = CN[C@H](C(=O)O)C(C)C; Cbz = O=C(OCc1ccccc1)*; Sar = CNCC(=O)O; CH2F = FC* Some results are limits rather than exact numbers.

Series [1] has as its system MEFs. Put plainly: Caspase-independent cytochrome c release (CICR) assay, diffuse cytochrome c immunostaining. As to conditions: for Diffuse cyt c (%): Act-D 40 nM, QVD 40 μM. In kind it is cell-based, mouse. How it is done: Caspase-independent cytochrome c release (CICR) assay. 3×10^4 cells were plated in each well of a Lab-Tek 4 well chamber slide (Nalge Nunc International, Naperville, Ill.) and treated with Act-D (40 nM), DMSO (0.2%), QVD (40 μM), or QVD plus Act-D for 1, 2, or 3 days. QVD (and Act-D+QVD) was replaced each day. At the end of the experiment, cells were washed twice with PBS and fixed with 4% formaldahyde in PBS for 5 minutes at room temperature. The cells were then washed twice with PBS and then incubated in blocking buffer (3% BSA and 0.1% Triton-X in PBS) for 30 min at room temperature. Cells were incubated for 1 hour at room temperature with anti-cytochrome c (Pharmingen, San Jose, Calif.) diluted 1:800 and 15 μg/ml Hoechst 33342 in blocking buffer. Cells were washed 5 times with PBS, and incubated with anti-mouse secondary antibody for 1 hour at room temperature. The cells were washed 5 times with PBS and then mounted in Prolong (Molecular Probes, Eugene, Oreg.).
Cells were scored as apoptotic if cytochrome c appeared diffuse and met the following criteria: 1) presence of diffuse cytochrome c in both the cytoplasm and nucleus; 2) lack of reticulated or punctate staining in the cytoplasm. Typically images were acquired using a 20× objective, and 500-800 cells were scored. For the exact number of cells counted in FIGS. 3A, 4, and 5, see Table 1 below. Nuclei were counted using images of uniformly illuminated Hoechst staining imported into Image J (URL: <http://rsb.info.nih.gov/ij/>).

The next series has as its system HeLa cells. As to the kind of experiment: Cytochrome c immunocytochemistry of HeLa cells treated with ActD and ZVAD-fmk. The format is cell-based. The settings on record: 24 h after treatment. How it is done: FIGS. 6A and 61B are photographs of the cells after the apoptosis assay. FIG. 6A. Immunocytochemistry. HeLa cells were treated with vehicle (DMSO Control), actinomycin D (ActD) to induce apoptosis, or ActD plus the caspase inhibitor ZVAD-fmk. 24 h later, cells were immunostained for cytochrome c (green) and counterstained with DAPI (blue) to identify nuclei. In control cells, cytochrome c is evident as punctate mitochondrial staining. […] FIG. 6B. Quantification. The % cells with diffuse cytochrome c staining (x axis) were scored 24 h after treatment with vehicle (Contr), ActD or ActD plus ZVAD (ZV). Cytochrome c staining in the presence of ZVAD allows apoptotic cells to accumulate over 24 h.

Series [2] relates to MEFs. As to the kind of experiment: Sub-G1 peak determination (flow cytometry). The format is cell-based, mouse. How it is done: Cell Death Assays: Sub-G1 peak determination. 1×10^5 cells were treated with Act-D (40 nM in DMSO), DMSO (0.2%), QVD (40 μM), or QVD plus Act-D for 1, 2, or 3 days. QVD (and Act-D+QVD) was replaced each day. At the end of the experiment, media were collected and washed once with PBS. The PBS was also collected and then the cells were trypisized. Trypsinization was stopped by addition of the previously collected and pooled media and PBS. Cells were then collected by centrifugation at 200 g for 10 minutes, resuspended in 70% ethanol and stored at −20° C. overnight. The fixed cells were resuspended in 300 μl of PBS containing 10 μg/ml PI and 0.5 μg/ml RNase A and incubated at room temperature for 1 hour. Cells were quantified by flow cytometery using a FACscan (Becton Dickinson) in FL-3 and analyzed using Cellquest software (BD) (Cotter and Martin, 1996).

Series [3] has as its system MEFs. As to the kind of experiment: Cell detachment scoring of Act-D-treated cultures with caspase inhibitors. In kind it is cell-based, mouse. The settings on record: Act-D 40 nM, 3 days. The protocol:
MEFs were given Act-D (40 nM in DMSO) or DMSO and either no inhibitor, zVAD (100 μM) or QVD (40 μM). After 3 days, the cells were photographed at 10× magnification.
(§1) Subconfluent cultures were treated with the caspase inhibitors zVAD or QVD together with actinomycin D (Act-D; 40 nM), which is known to induce cell death […]. Initially, the cultures were simply scored for cell detachment, a late event in the apoptotic response of adherent cells.

Series [4] has as its system MEFs. Put plainly: Mitochondrial membrane potential (TMRE, flow cytometry). The format is cell-based, mouse. How it is done: Mitochondrial Membrane Potential. 1×10^5 cells were treated with Act-D and QVD for 1, 2, or 3 days. QVD (and Act-D+QVD) was replaced each day. At the end of the experiment, media were collected and the cells were washed with PBS. The PBS was collected and combined with the media. Cells were trypsinized and resuspended in medium and PBS, as described above. The cells were spun for 5 min at 200 g and resuspended in fresh media containing TMRE (50 nM) and allowed to incubate at 37° C. for 30 minutes. Fluorescence was quantified in FL-2 using a FACscan and analyzed with Cellquest software (Waterhouse et al., 2001).

For series [5], the system named is MEFs. Put plainly: PI exclusion assay (flow cytometry). The format is cell-based, mouse. How it is done: PI exclusion assay. 1×10^5 cells were treated with Act-D (40 nM in DMSO), DMSO (0.2%), QVD (40 μM), or QVD plus Act-D for 1, 2, or 3 days. QVD (and Act-D+QVD) was replaced each day. At the end of the experiment, PI was added to a final concentration of 10 μg/ml. Following 10 min in the incubator, media were collected and the cells were washed with PBS. The PBS was also collected and combined with the media. The remaining cells were trypsinized and then combined with the mix of PBS and media. The cells were centrifuged at 200 g for 10 minutes and resuspended in 300 μl of PBS. The cells were then quantified and analyzed as above (Cotter and Martin, 1996).

For a further series, the system named is HMECs. Put plainly: Cell detachment scoring of Act-D-treated cultures with caspase inhibitors. The format is cell-based, human. The settings on record: for detachment of cells in the presence of Act-D and caspase inhibitor: Act-D treated. How it is done: as §1
A further series has as its system WI-38 fibroblasts. The description is as above. In kind it is cell-based, human. The settings on record: for attachment of Act-D treated cells with caspase inhibitor: WI-38 cells. The protocol:
as §1

For a further series, the system named is HMEC. As to the kind of experiment: Growth curves in media with QVD. The format is cell-based, human. The settings on record: 0.1% DMSO + 40 μM QVD. The protocol:
(§2) HCA-2 fibroblasts and HMEC were grown in normal growth media (DMEM, MEGM) or normal growth media supplemented with 0.1% DMSO (DMSO) or 0.1% DMSO+40 μM QVD (QVD). HCA-2 growth curves were averaged triplicates (HCA-2) or duplicates (HMEC) and error bars (HCA-2) are SD.

For a further series, the system named is HCA-2 fibroblasts. As to the kind of experiment: Growth curves in media with QVD. In kind it is cell-based. The settings on record: 0.1% DMSO + 40 μM QVD. The protocol: as §2
The conditions of series [6]: cited from earlier work.
[7] abbreviates: MEFs treated with Act-D for one day.

For the molecule `Cc1c2oc3c(C)ccc(C(=O)N[C@@H]4C(=O)N[C@H](C(C)C)C(=O)N5CCC[C@H]5C(=O)N(C)CC(=O)N(C)[C@@H](C(C)C)C(=O)O[C@@H]4C)c3nc-2c(C(=O)N[C@@H]2C(=O)N[C@H](C(C)C)C(=O)N3CCC[C@H]3C(=O)N(C)CC(=O)N(C)[C@@H](C(C)C)C(=O)O[C@@H]2C)c(N)c1=O` [Act-D, actinomycin D] (I: T[dV]P[Sar][NMeV] / II: T[dV]P[Sar][NMeV]; ester I:1-I:C, II:1-II:C; linker I:N-II:N via Actinocin(9to1)), in the series with MEFs [1] (MEFs treated with Act-D for one day, CICR assay (QVD present)), the “cells apoptotic by CICR assay” value is 13%. In addition, the “cells dead or dying by CICR assay” value in the series with MEFs [1] (MEFs treated with Act-D, after 3 days, CICR assay (QVD present)) was found to be 96%. The “time at which Act-D begins killing cells by CICR assay” value in the series on MEFs [1] (MEFs, CICR assay) was at most 24 h. Also, the “Diffuse cyt c (%)” value in the series on MEFs [1] (MEFs, Day 1) is 0.8%; in the series with MEFs [1] (MEFs, Day 2), 13.4%. Further, the “cells remaining on dish and cytochrome c staining” value with HeLa cells is “fewer cells are present on the culture dish”. Besides, in the series on MEFs [2] (setting [7]), the “apoptosis detected by subG1 peak determination” value is “little or no apoptosis”. The “time after addition at which manifestations of apoptosis were apparent (sub-G1 DNA peak)” value with MEFs [2] (MEFs, Act-D) lay in the range of 1 to 2 days. Besides, the “apoptotic morphology and detachment” value with MEFs [3] was “adopt characteristic apoptotic morphology and detach from the culture dish”; in the series with HMECs (Act-D 40 nM, 3 days) it was “adopt characteristic apoptotic morphology and detach from the culture dish”; in the series on WI-38 fibroblasts (WI-38, Act-D 40 nM, 3 days) it was “adopt characteristic apoptotic morphology and detach from the culture dish”. Also, the “apoptosis detected by loss of ΔΨm” value with MEFs [4] (setting [7]) is “little or no apoptosis”. Further, the “time after addition at which manifestations of apoptosis were apparent (reduction in ΔΨm)” value in the series with MEFs [4] (MEFs, Act-D) lay in the range of 1 to 2 days. Also, the “cells died by PI exclusion assay” value in the series with MEFs [5] (MEFs treated with Act-D, after 3 days) was determined as 74%. Besides, in the series with MEFs [5] (MEFs, Act-D), the “time after addition at which manifestations of apoptosis were apparent (propidium iodide exclusion)” value was in the range of 1 to 2 days.

As to `CC(C)[C@H](NC(=O)c1ccc2ccccc2n1)C(=O)N[C@@H](CC(=O)O)C(=O)COc1c(F)cccc1F` [QVD, Quinoline-Val-Asp-Ch2-O-Ph], the “Diffuse cyt c (%)” value in the series on MEFs [1] (MEFs, Day 1) was 2.0%; with MEFs [1] (MEFs, Day 2) it was 2.3%; with MEFs [1] (MEFs, Day 3), 3.2%. Besides, the “effect on cell growth” value in the series on HMEC and in the series on HCA-2 fibroblasts was “does not inhibit growth” in each case. For the same molecule, the “effect on Act-D-induced sub-G1 DNA peak” value with MEFs [2] (MEFs, Act-D, 40 μM QVD) is on record as “substantially or completely reduced”. In addition, the “prevention of Act-D-induced cell detachment” value in the series on MEFs [3] (QVD 40 μM) was “preserves adhesion; also recorded: prevented most of the cell detachment”. Besides, the “effect on Act-D-induced reduction in ΔΨm” value in the series with MEFs [4] (MEFs, Act-D, 40 μM QVD) is on record as “substantially or completely reduced”. Also, the “effect on Act-D-induced loss of propidium iodide exclusion” value with MEFs [5] (MEFs, Act-D, 40 μM QVD) is listed as “substantially or completely reduced”. Besides, in series [6] (animal, data sheet of distributor MP Biomedicals), the “dose with no toxicity / administered safely” value is 1 g/kg of body weight. Also, the “dose reported as safely used” value in [6] (in vivo, Yang et al. 2004) was 20 mg/kg of body weight. Besides, the “detachment of cells in the presence of Act-D and caspase inhibitor” value in the series on HMECs is “a small fraction detached”. Also, the “attachment of Act-D treated cells with caspase inhibitor” value in the series with WI-38 fibroblasts was “remained equally well attached”.

As to `COC(=O)C[C@H](NC(=O)[C@H](C)NC(=O)[C@@H](NC(=O)OCc1ccccc1)C(C)C)C(=O)CF` [zVAD, benzyloxycarbonyl-Val-Ala-Asp-fluoromethylketone] (Cbz-Val-Ala-Asp(OMe)-CH2F), the “prevention of Act-D-induced cell detachment” value in the series with MEFs [3] (zVAD 100 μM) is given as “failed to prevent detachment”. For the same molecule, in the series with HMECs, the “detachment of cells in the presence of Act-D and caspase inhibitor” value was “a larger fraction detached”. Besides, in the series on WI-38 fibroblasts, the “attachment of Act-D treated cells with caspase inhibitor” value is given as “remained equally well attached”.
